Laboratory results reported in PubChem BioAssay (NCI).
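Cells were grown in 96-well plates and exposed to each compound for 48 hours at five concentrations; endpoints were interpolated linearly between bracketing concentrations, or set to the highest concentration if not reached. TGI denotes the concentration required for complete inhibition of growth.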

Tests used:
Assay in all cases: DTP human tumour cell line panel, 48 h
SK-MEL-2 melanoma = test system: SK-MEL-2 melanoma
OVCAR-5 ovarian = test system: OVCAR-5 ovarian
OVCAR-8 ovarian = test system: OVCAR-8 ovarian
UACC-257 melanoma = test system: UACC-257 melanoma
COLO 205 colon = test system: COLO 205 colon
HCT-116 colon = test system: HCT-116 colon
NCI/ADR-RES ovarian = test system: NCI/ADR-RES ovarian
UO-31 renal = test system: UO-31 renal

SMILES | TGI (SK-MEL-2 melanoma) [µM] | TGI (OVCAR-5 ovarian) [µM] | TGI (OVCAR-8 ovarian) [µM] | TGI (UACC-257 melanoma) [µM] | TGI (COLO 205 colon) [µM] | TGI (HCT-116 colon) [µM] | TGI (NCI/ADR-RES ovarian) [µM] | TGI (UO-31 renal) [µM]
CCOC(=O)c1nc2ccccc2nc1NCc1ccc(Cl)cc1Cl | > 100 | > 100 | > 100 | > 100 | > 100 | > 100 | > 100 | > 100
NC(=O)C1=CC2C3C=CC2(O)C(=O)OC3O1 (stereo not drawn) | > 40.2 | > 64.5 | 6.66 | 7.44 | 16.1 | 7.41 | 7.22 | 13.7
CCOC(=O)C1CCCCc2sc(N)c(C#N)c21 (stereo not drawn) | > 100 | > 100 | > 100 | > 100 | > 100 | > 100 |  | > 100
CC(C)CCCC(C)[C@H]1CC[C@H]2N=C(Nc3ccccc3)CCC[C@]12C (stereo partly drawn) | 3.2 |  | 3.66 | 4.85 | 2.67 |  | 3.32 | 3.12
COc1cccc(CN(C(=O)/C=C\Sc2ccccc2)C(C)(C)C)c1 | > 100 | > 100 | > 100 | > 100 | > 100 | > 100 | > 100 | > 100
CC(C)C1CC(CO)(CNc2cc(Cl)nc(N)n2)C1 (stereo not drawn) | > 100 | > 100 | > 100 | > 100 | > 100 | > 100 | > 100 | > 100
O=[N+]([O-])/C=C/c1cn(CCCCCn2cc(/C=C/[N+](=O)[O-])c3ccccc32)c2ccccc12 | 38.1 | 32.3 | 16.5 | 13.8 | > 46.1 | 0.824 | 35.4 | 9.78
[N-]=[N+]=C(C(=O)C(=[N+]=[N-])C(=O)c1ccccc1)C(=O)c1ccccc1 | > 100 | > 100 | > 100 | > 100 | > 100 | > 100 | > 100 | > 100
COc1ccc(C=Nc2ccc(-c3nc4ccccc4[nH]3)cc2)cc1OC | > 100 | > 100 | > 100 | > 100 | > 100 | > 100 | > 100 | > 100
CC(C)=CCC[C@@H](C)c1c2[nH]c3ccccc3sc-2c(C)c(=O)c1=O | 30.7 | > 75 | 13.8 | > 75 | > 66.7 | 21.8 | 12.1 | 14.4
O=C1CSc2nnc(CCCCCCCCc3nnc4n3NC(=O)CS4)n2N1 | > 100 | > 100 | > 100 | > 100 | > 100 | > 100 | > 100 | > 100
Cc1cc(S(=O)(=O)O)c(NC(=O)c2oc3cc(O)ccc3c(=O)c2C)cc1Cl | > 100 | > 100 | > 100 | > 100 |  | > 100 | > 100 | > 100
O=S1(=O)OCCOS(=O)(=O)C1Cc1nc2ccccc2[nH]1 | > 100 | > 100 | > 100 | > 100 | > 100 | 57 | > 100 | > 100
CC1(C)CCC2(C(=O)OC3OC(CO)C(O)C(O)C3O)CCC3(CO)C(=CCC4C5(C)CC(O)C(O)C(C)(C(=O)OC6OC(CO)C(O)C(O)C6O)C5CCC43C)C2C1 (stereo not drawn) | > 100 | > 100 | > 100 | > 100 | > 100 | > 100 | > 100 | > 100
CC/C(Cl)=N\OC(=O)Nc1ccc(F)cc1F | 33.1 | 35.1 | 37.3 | 34.2 | 3.6 | 19.1 | 44.5 | 29.4
COc1ccc(C(=O)c2ccc(-n3cc(/C=C/[N+](=O)[O-])c4ccccc43)cc2)cc1 | 58 | > 100 | 45.2 | 31.3 | > 63.5 | 28.2 | 56.5 | 37.1
Cc1ccc(S(=O)(=O)N/N=C2\C3CC4CC(C3)C2C4)cc1 (stereo not drawn) | > 100 | > 100 | > 100 | > 100 | > 100 |  | > 100 | > 100
COc1cc2cc(C(=O)N3CC(CCl)c4c3cc([N+](C)(C)Cc3ccc([N+](=O)[O-])n3C)c3ccccc43)[nH]c2c(OC)c1OC (stereo not drawn) | 1.5 | > 100 | 8.78 | 5.4 | 7.36 | 6.92 | 4.38 | 
COC(=O)c1ccc(/C=C2\CCc3ccccc3C2=O)cc1 |  | > 100 | > 100 | > 100 | > 100 | > 100 | > 100 | > 100
O=S(=O)(O)C1CCC(O)C2[N-]CCCC21.O=S(=O)(O)C1CCC(O)C2[N-]CCCC21.[Zn+2] (stereo not drawn) | > 100 | > 100 | > 100 | > 100 | > 100 | > 100 | > 100 | > 100
C=C1CC(Cn2cc(Br)c(=O)[nH]c2=O)(c2ccc(-c3ccccc3)cc2)OC1=O (stereo not drawn) | 3.26 | 15.6 | 4.29 | 2.53 | 2.23 | 1.32 | 4.82 | 3.93
O=C1/C(=C\c2cccc(Oc3ccccc3)c2)SC(c2ccccc2)N1c1cccc([N+](=O)[O-])c1 (stereo not drawn) | > 100 | > 100 | > 100 | > 100 | > 100 | > 100 | > 100 | > 100
CC(C)(C)OC(=O)N1CCc2c(n(C/C=C/c3ccccc3)[nH]c2=O)C1 | > 100 |  | > 100 | > 100 | > 100 | > 100 | > 100 | > 100
COc1ccc(C2=C(OC(=O)N(C)C)c3cccn3-c3cc(Cl)ccc3S2)cc1 |  |  | > 10 | > 10 | > 10 |  |  | 
COc1ccc(-c2nc(-c3cnccn3)n(C3OC(CO)C(O)C(O)C3O)n2)cc1 (stereo not drawn) |  | > 100 | > 100 | > 100 | > 100 | > 100 | > 100 | > 100
CC1=C2C(=O)c3ccccc3C(=O)[C@H]2C[C@@H](N2CCCCCC2=O)O1 | 40 | 30.4 | 40.3 | 31.2 | 32.2 |  | 49.8 | 33.3
